# Laboratory results reported in article PMC7614683, “A small molecule PI3Kα activator for cardioprotection and neuroregeneration” (Nature, 2023).
# Like-named read-outs stand apart in the source and are kept apart here.
# What was measured:
# MEFs = experiment: Phosphoinositide quantification by mass spectrometry, MEFs; assay type: cell-based, mouse
# Procedure: A549 cells (5.10^5) or wild-type MEFs (3.10^5) were plated in complete media onto 3.5 cm dishes or 60 mm dishes respectively for 24 h, prior to FCS-free starvation media for 16 h. MEFs, in addition, were supplemented with arachidonic acid in the FCS-free starvation media as previously described. […] Reactions were terminated in 600 μl ice-cold 1 M HCl and cells scraped and resuspended, then divided into two equal samples in eppendorfs. […] The data are shown as response ratios, calculated by normalizing the multiple reaction monitoring (MRM)-targeted lipid integrated response area to that of a known amount of relevant internal standard. To account for any cell input variability, PIP3 response ratios were normalized to C38:4-PI response ratios; while PI(3,4)P2 response ratios were normalised to PI(4,5)P2 response ratios. Data shown are mean ±SD for n ≥3, except for non-DMSO control in MEF PIP3 measurements where n=1.
# [1] = target: T1, protein kinases of the Z-LYTE panel (Homo sapiens, UniProt P43403); experiment: SelectScreen Z-LYTE kinase activity assay (SI Table 6); assay type: biochemical
# T1 sequence (P43403 1-619): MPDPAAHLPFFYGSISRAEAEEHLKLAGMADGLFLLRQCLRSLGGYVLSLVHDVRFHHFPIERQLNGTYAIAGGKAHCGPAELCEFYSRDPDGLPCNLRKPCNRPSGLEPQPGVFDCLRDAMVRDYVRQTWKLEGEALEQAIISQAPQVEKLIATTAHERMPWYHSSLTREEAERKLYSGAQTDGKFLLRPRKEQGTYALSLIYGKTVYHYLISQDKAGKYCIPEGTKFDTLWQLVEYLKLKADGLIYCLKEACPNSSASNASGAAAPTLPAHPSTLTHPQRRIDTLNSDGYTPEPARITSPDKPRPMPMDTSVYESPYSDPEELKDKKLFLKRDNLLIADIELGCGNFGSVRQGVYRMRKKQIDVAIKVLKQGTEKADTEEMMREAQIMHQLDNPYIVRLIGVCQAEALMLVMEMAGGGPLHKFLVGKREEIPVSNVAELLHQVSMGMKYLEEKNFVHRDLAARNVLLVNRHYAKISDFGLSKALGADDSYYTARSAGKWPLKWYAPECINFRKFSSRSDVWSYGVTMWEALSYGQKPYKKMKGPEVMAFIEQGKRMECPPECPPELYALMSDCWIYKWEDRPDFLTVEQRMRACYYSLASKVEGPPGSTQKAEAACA
# Procedure: (§1) 133 protein kinases and 7 lipid kinases were counterscreened, with 1938 used at 1 μM, using the Adapta, Lantha and Z-LYTE assays (SelectScreen Kinase Profiling Service; Thermofisher – experimental details of these assays can be found here: https://www.thermofisher.com/uk/en/home/industrial/pharma-biopharma/drug-discovery-development/target-and-lead-identification-and-validation/kinasebiology/kinase-activity-assays.html. The tree represention in KinMap[59] generated courtesy of Cell Signaling Technology, Inc. (www.cellsignal.com). mTORC1 (mTOR/RAPTOR/LST8) protein complex and ATM kinase and substrates were produced as previously described[57],[60]. Screening of 1938 was conducted using SuperSep Phos-Tag 50 μmol/l 100 x 100 x 6.6 mm 17-well (192-18001/199-18011) gels. For ATM assays, 100 nM ATM was incubated for 30 min at 30°C with 5 μM GST-p53 and 1 mM ATP, in the absence or presence of 200 μM 1938 in ATM Kinase Buffer (50 mM HEPES pH 7.5, 100 mM NaCl, 10% glycerol, 2 mM […], 5 mM MgCl2). As a positive control for ATM activation, the same reaction was carried out with 100 nM ATM/5 μM GST-p53/1 mM ATP in the presence of 100 nM Mre11-Rad50-Nbs1 (MRN) complex, a known activator of ATM[61]. For mTORC1 assays, 50 nM mTORC1 complex (mTOR/LST8/RAPTOR) was incubated for 3 h at 30°C with 15 μM 4E-BP1, 10 mM MgCl2 and 250 μM ATP, in the absence or presence of 200 μM 1938. As a ‘positive’ control, a higher concentration (150 nM) of mTORC1 complex (mTOR/LST8/RAPTOR) was incubated for 3 h at 30°C with 15 μM 4E-BP1, 10 mM MgCl2 and 250 μM ATP. Kinase reactions were quenched by addition of SDS-PAGE Loading Buffer (as per manufacturer’s instructions) and freezing at -20°C before being run on the Phos-tag gels at 150 V for 90 min. Gels were then stained using InstantBlue™ Coomassie, and quantified using BioRad Image Lab Software. Kinase assays were carried out in triplicate.
# [2] = target: protein kinases of the Z-LYTE panel (Homo sapiens, UniProt P06241); experiment: as above; assay type: biochemical
# Procedure: as §1
# [3] = target: protein kinases of the Z-LYTE panel (Homo sapiens, UniProt P04626); experiment: as above; assay type: biochemical
# Procedure: as §1
# [4] = target: protein kinases of the Z-LYTE panel (Homo sapiens, UniProt Q04912); experiment: as above; assay type: biochemical
# Procedure: as §1
# [5] = target: protein kinases of the Z-LYTE panel (Homo sapiens, UniProt P17612); experiment: as above; assay type: biochemical
# Procedure: as §1
# IRAK1 = IRAK1 (Homo sapiens, UniProt P51617); experiment: SelectScreen Adapta; assay type: biochemical
# Procedure: as §1
# [6] = target: PIK3CA/PIK3R1 (p110 alpha/p85 alpha) (Homo sapiens, UniProt P42336); experiment: SelectScreen Adapta; assay type: biochemical
# Procedure: as §1
# PI4KB (PI4K beta) = PI4KB (PI4K beta) (Homo sapiens, UniProt Q9UBF8); experiment: SelectScreen Adapta; assay type: biochemical
# Procedure: as §1
# LRRK2 = LRRK2 (Homo sapiens, UniProt Q5S007); experiment: SelectScreen Adapta; assay type: biochemical
# Procedure: as §1
# Chain of IRAK1 (P51617 whole entry): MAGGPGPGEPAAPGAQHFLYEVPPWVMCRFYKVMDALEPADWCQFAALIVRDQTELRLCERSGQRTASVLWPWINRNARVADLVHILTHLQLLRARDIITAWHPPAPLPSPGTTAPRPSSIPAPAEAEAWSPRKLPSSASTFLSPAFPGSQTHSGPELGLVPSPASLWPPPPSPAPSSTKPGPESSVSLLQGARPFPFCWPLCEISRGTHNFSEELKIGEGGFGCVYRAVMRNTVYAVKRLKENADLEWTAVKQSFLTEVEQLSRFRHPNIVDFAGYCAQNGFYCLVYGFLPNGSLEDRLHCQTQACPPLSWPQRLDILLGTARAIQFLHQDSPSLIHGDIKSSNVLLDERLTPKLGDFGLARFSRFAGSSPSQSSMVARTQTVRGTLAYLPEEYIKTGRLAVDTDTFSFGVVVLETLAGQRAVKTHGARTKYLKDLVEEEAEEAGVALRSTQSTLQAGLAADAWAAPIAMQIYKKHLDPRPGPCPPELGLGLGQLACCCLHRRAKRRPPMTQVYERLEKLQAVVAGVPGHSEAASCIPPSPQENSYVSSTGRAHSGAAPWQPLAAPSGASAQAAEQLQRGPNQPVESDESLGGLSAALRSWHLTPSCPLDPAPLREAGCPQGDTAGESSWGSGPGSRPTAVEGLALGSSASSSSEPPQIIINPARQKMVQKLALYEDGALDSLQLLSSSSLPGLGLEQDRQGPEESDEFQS
# Chain of PIK3CA/PIK3R1 (p110 alpha/p85 alpha) (P42336 whole entry): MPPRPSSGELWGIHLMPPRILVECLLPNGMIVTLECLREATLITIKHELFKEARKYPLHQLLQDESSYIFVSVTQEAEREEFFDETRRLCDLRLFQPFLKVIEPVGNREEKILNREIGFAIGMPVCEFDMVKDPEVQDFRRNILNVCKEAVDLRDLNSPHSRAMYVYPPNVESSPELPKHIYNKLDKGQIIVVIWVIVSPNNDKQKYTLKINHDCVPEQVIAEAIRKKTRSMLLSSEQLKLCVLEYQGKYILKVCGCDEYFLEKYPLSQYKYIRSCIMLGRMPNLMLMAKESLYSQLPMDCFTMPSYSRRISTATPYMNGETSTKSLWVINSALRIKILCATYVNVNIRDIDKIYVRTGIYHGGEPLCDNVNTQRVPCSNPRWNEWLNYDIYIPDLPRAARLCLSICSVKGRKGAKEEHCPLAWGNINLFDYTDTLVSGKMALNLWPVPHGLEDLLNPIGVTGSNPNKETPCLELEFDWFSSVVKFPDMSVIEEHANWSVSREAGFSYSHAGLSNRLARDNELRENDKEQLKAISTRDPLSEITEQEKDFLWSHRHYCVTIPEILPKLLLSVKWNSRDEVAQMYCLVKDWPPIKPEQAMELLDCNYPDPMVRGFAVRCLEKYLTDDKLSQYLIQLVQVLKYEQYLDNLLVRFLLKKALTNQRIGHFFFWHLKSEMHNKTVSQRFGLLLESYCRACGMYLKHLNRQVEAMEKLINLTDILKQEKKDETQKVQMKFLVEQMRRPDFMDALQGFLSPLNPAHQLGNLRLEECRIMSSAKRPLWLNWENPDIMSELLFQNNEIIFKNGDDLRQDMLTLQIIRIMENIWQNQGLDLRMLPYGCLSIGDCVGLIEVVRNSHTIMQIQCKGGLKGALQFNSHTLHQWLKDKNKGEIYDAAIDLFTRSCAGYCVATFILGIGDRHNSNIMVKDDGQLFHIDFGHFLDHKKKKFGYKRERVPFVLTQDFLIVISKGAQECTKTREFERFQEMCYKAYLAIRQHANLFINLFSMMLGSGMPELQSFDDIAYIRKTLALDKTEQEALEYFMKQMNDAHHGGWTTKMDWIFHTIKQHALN
# Chain of PIK3CA/PIK3R1 (p110 alpha/p85 alpha) (P27986 whole entry partner): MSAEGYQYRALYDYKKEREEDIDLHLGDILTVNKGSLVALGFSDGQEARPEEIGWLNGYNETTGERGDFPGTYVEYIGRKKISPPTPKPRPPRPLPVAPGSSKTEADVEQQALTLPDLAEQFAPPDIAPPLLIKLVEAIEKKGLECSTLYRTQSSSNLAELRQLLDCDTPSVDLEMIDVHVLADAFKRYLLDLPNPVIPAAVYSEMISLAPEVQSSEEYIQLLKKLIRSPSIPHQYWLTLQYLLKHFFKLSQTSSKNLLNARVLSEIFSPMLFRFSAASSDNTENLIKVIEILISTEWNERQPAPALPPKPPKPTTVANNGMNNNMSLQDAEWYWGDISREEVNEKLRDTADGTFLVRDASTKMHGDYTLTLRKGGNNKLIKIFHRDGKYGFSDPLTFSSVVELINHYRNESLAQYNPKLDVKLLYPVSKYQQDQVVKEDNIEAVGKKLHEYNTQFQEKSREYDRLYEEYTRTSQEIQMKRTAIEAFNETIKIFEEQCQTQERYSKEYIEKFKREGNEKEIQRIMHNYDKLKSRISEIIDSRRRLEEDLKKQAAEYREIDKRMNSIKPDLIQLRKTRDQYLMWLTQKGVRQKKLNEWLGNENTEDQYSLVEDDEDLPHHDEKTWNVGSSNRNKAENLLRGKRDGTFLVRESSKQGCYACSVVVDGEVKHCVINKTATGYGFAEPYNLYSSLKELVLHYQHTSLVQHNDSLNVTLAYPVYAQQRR
# Chain of PI4KB (PI4K beta) (Q9UBF8 whole entry): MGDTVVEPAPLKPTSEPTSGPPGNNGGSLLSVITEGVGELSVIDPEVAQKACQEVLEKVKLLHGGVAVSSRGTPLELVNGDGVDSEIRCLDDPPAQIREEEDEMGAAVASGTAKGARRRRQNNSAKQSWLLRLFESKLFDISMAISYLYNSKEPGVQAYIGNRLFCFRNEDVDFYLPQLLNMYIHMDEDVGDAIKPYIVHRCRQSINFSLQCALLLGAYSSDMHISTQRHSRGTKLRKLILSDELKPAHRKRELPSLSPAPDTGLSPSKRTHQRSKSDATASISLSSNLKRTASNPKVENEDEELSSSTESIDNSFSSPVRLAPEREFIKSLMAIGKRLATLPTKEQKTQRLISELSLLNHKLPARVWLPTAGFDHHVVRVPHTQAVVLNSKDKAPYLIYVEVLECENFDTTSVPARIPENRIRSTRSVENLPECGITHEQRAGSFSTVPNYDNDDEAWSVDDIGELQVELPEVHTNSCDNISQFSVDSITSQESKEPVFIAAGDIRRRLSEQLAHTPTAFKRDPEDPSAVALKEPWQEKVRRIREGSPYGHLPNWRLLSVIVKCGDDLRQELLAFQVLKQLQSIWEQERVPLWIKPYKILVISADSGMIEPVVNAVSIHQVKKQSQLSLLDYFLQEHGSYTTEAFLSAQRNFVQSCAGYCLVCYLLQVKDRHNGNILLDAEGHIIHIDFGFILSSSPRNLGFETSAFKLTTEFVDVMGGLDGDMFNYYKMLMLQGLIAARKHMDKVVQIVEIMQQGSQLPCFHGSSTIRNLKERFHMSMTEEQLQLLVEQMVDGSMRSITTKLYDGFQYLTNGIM
# Chain of protein kinases of the Z-LYTE panel (Homo sapiens, UniProt Q04912) (Q04912 25-1400): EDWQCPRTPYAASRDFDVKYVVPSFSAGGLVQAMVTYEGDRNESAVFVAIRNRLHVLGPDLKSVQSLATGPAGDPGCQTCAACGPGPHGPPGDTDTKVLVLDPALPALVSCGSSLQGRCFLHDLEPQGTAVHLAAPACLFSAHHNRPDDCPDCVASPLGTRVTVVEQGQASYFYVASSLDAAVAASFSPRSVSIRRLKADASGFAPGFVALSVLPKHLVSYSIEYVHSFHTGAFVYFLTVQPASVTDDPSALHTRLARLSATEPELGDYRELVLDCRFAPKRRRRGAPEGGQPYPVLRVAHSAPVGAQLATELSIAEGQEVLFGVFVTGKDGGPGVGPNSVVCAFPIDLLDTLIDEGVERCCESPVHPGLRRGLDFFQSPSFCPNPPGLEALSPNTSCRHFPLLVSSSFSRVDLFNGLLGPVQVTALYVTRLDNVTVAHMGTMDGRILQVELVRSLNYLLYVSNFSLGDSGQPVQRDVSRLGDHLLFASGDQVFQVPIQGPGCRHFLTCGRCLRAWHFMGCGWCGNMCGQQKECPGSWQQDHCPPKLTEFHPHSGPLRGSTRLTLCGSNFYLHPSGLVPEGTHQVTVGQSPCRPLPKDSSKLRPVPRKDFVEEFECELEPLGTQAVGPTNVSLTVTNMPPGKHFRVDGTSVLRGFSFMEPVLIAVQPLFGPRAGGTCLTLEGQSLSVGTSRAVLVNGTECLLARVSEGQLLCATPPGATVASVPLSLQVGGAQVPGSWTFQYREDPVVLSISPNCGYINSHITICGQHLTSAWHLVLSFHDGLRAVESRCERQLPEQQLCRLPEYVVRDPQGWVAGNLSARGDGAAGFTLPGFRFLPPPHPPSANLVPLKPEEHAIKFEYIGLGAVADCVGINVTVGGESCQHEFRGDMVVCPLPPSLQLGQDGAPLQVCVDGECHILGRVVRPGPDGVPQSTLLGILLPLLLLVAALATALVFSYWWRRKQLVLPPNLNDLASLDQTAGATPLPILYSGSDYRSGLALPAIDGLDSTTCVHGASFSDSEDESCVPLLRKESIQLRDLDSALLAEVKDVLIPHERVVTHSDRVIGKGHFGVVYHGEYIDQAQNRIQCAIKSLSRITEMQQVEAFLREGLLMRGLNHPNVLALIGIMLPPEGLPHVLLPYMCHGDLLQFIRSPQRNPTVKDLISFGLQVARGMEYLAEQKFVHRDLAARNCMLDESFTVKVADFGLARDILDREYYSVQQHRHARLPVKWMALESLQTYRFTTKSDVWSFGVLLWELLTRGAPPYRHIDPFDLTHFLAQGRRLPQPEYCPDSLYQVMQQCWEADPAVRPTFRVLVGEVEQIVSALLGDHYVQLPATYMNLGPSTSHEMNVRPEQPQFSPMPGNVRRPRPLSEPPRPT
smiles,measurement,setting,value
CCN1CCN(c2ccc(Nc3cc(Nc4cccc5c4N(C(C)=O)CC5)ccn3)cc2)CC1 [Compound 1938],time for which maximal PIP3 level is maintained,MEFs,up to 40 min
same,time of maximal PIP3 level,MEFs,5 min
same,time to increased PIP3 levels,MEFs,≤ 30 s
same,concentration at which PIP3 induction plateaus,MEFs; 2 min,around 10 μM
same,PIP3 levels compared with insulin and PDGF,MEFs; 2 min time point,comparable to those induced by insulin
same,EC50,"MEFs; Mus musculus, 2 min, read-out: EC50 of PIP3 induction",~5 µM
same,inhibition at 1 µM,[1]; read-out: % Inhibition Point 1,3%
same,inhibition at 1 µM,[1]; read-out: % Inhibition Point 2,-4.63%
same,inhibition at 1 µM,[1]; read-out: % Inhibition mean,-0.814%
same,inhibition at 1 µM,[2]; read-out: % Inhibition Point 1,6%
same,inhibition at 1 µM,[2]; read-out: % Inhibition Point 2,7%
same,inhibition at 1 µM,[2]; read-out: % Inhibition mean,6.46%
same,inhibition at 1 µM,[3]; read-out: % Inhibition Point 1,-2.48%
same,inhibition at 1 µM,[3]; read-out: % Inhibition Point 2,2.33%
same,inhibition at 1 µM,[3]; read-out: % Inhibition mean,-0.0739%
same,inhibition at 1 µM,[4]; read-out: % Inhibition Point 1,8%
same,inhibition at 1 µM,[4]; read-out: % Inhibition Point 2,8.5%
same,inhibition at 1 µM,[4]; read-out: % Inhibition mean,8%
same,inhibition at 1 µM,[5]; read-out: % Inhibition Point 1,3%
same,inhibition at 1 µM,[5]; read-out: % Inhibition Point 2,5%
same,inhibition at 1 µM,[5]; read-out: % Inhibition mean,4%
same,inhibition at 1 µM,IRAK1; read-out: % Inhibition Point 1,29%
same,inhibition at 1 µM,IRAK1; read-out: % Inhibition Point 2,20%
same,inhibition at 1 µM,IRAK1; read-out: % Inhibition mean,25%
same,inhibition at 1 µM,[6]; read-out: % Inhibition Point 1,-19%
same,inhibition at 1 µM,[6]; read-out: % Inhibition Point 2,-20%
same,inhibition at 1 µM,[6]; read-out: % Inhibition mean,-19%
same,inhibition at 1 µM,PI4KB (PI4K beta); read-out: % Inhibition Point 1,-1.1%
same,inhibition at 1 µM,PI4KB (PI4K beta); read-out: % Inhibition Point 2,0.786%
same,inhibition at 1 µM,PI4KB (PI4K beta); read-out: % Inhibition mean,-0.157%
same,inhibition at 1 µM,LRRK2; read-out: % Inhibition Point 1,13%
same,inhibition at 1 µM,LRRK2; read-out: % Inhibition Point 2,18%
same,inhibition at 1 µM,LRRK2; read-out: % Inhibition mean,16%
